Results published in PubChem BioAssay (NCI).
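Step 1: Grow cells in 96-well plates. Step 2: Expose to compound for 48 hours at 5 concentrations. Step 3: Interpolate endpoints linearly; if unreached, use highest concentration. TGI marks complete inhibition of growth.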

Assays:
Test in all cases: NCI-60 cell line screen, 48 h
[1] = system: DU-145 prostate
[2] = system: HCT-15 colon
[3] = system: SK-MEL-2 melanoma
[4] = system: SK-MEL-28 melanoma
[5] = system: SN12C renal
[6] = system: SNB-75 CNS
[7] = system: TK-10 renal
[8] = system: U251 CNS
[9] = system: UO-31 renal
[10] = system: HL-60(TB) leukemia
[11] = system: MDA-N

Structure (SMILES)	TGI [1]	TGI [2]	TGI [3]	TGI [4]	TGI [5]	TGI [6]	TGI [7]	TGI [8]	TGI [9]	TGI [10]	TGI [11]
CC1=NC2=Nc3nc(C)cc[n+]3CN2C=C1	> 100 µM	> 100 µM	> 100 µM	> 100 µM	> 100 µM	> 100 µM	> 100 µM	> 100 µM	> 100 µM		
CC(C)(C)OC(=O)N(CCCCNC(=O)OCc1ccccc1)CCCNC(=O)OCc1ccccc1	> 100 µM	> 100 µM	> 100 µM	> 100 µM	> 100 µM	> 100 µM	> 100 µM	> 100 µM		53.9 µM	
COC(=O)c1ccc(/C=C2\Oc3ccccc3C2=O)cc1	> 100 µM	> 100 µM		> 100 µM	> 100 µM	> 100 µM	> 100 µM	> 100 µM	> 100 µM	54.4 µM	> 100 µM
[N-]=[N+]=NC(c1cn(C2CC(O)C(CO)O2)c(=O)[nH]c1=O)C(Br)Br (stereo not drawn)		> 100 µM	> 100 µM	> 100 µM	> 100 µM	> 100 µM	> 100 µM	> 100 µM	> 100 µM	> 100 µM	
CCOC(=O)c1[nH]c(-c2[nH]c(-c3[nH]c(-c4[nH]c(C(=O)OCC)c(C)c4C(=O)OCC)c(C(=O)OCC)c3C)c(C)c2C(=O)OCC)c(C(=O)OCC)c1C	> 100 µM	> 100 µM	> 100 µM	> 100 µM	> 100 µM		> 100 µM	> 100 µM		> 100 µM	> 100 µM
COC(=O)CCC1=C(CC(=O)OC)C(C)(OC)N=C1NC(=O)OCc1ccccc1 (stereo not drawn)	> 100 µM	> 100 µM	> 100 µM	> 100 µM	> 100 µM	> 100 µM	> 100 µM	> 100 µM	> 100 µM		
O=CNNC(=O)Nc1cccc2ccccc12	> 100 µM	> 100 µM		> 100 µM	> 100 µM	> 100 µM	> 100 µM	> 100 µM	> 100 µM	> 100 µM	
CN(C)CCNC(=O)c1ccc(NCCCN(C)CCCNc2ccc(C(=O)NCCN(C)C)c3[nH]c4ccccc4c(=O)c23)c2c(=O)c3ccccc3[nH]c12		4.52 µM	0.262 µM	1.23 µM	0.397 µM	0.0844 µM	1.98 µM	0.247 µM	1.9 µM	0.659 µM	
O=C(OC1C2OC(=O)c3cc(O)c(O)c(O)c3Oc3cc4c(c(O)c3O)-c3c(cc(O)c(O)c3O)C(=O)OCC3OC(O)C(OC(=O)c5cc(O)c(O)c(O)c5Oc5cc6c(c(O)c5O)-c5c(cc(O)c(O)c5O)C(=O)OC1C(COC6=O)OC2O)C(OC(=O)c1cc(O)c(O)c(O)c1)C3OC4=O)c1cc(O)c(O)c(O)c1 (stereo not drawn)	> 100 µM			> 100 µM	> 100 µM		> 100 µM		> 100 µM	44.4 µM	46.6 µM
CC(=O)OC12C3C4C1C1C2C3C41OC(C)=O (stereo not drawn)	> 100 µM	> 100 µM	> 100 µM	> 100 µM	> 100 µM	> 100 µM	> 100 µM	> 100 µM	> 100 µM	> 100 µM	
O=C(O)CCC(=O)c1ccc2c(c1)C(C(=O)O)CC2 (stereo not drawn)	> 100 µM	> 100 µM	> 100 µM	> 100 µM	> 100 µM		> 100 µM	> 100 µM	> 100 µM	> 100 µM	> 100 µM
CN1C/C(=C\c2cccs2)C(O)/C(=C/c2cccs2)C1 (stereo not drawn)	> 100 µM	> 100 µM	> 100 µM	> 100 µM	> 100 µM		> 100 µM	> 100 µM	> 100 µM		> 100 µM
CN(C)c1ccc(C=NCC2CCCN3CCCCC23)cc1 (stereo not drawn)	> 100 µM	> 100 µM				> 100 µM	> 100 µM		> 100 µM		> 100 µM
O=C1C(Br)=C(c2ccccc2)O/C1=C/C(=O)c1ccc(Br)cc1	> 100 µM	> 100 µM		> 100 µM	26.9 µM	> 100 µM	> 100 µM	> 100 µM	> 100 µM	52.4 µM	> 100 µM
N#CN/C(N)=N/C/N=C(\N)NC#N		50.2 µM	> 100 µM	> 100 µM	> 100 µM	> 100 µM	> 100 µM	> 100 µM	> 100 µM	> 100 µM	
O=C(/C=C/c1cccc(Oc2ccccc2)c1)NCc1ccc(C(=O)NCc2ccccc2)cc1	> 100 µM	> 100 µM	> 100 µM	> 100 µM	> 100 µM	53.3 µM	> 100 µM	> 100 µM	> 100 µM		> 100 µM
CN1CN(c2ccccc2)C2(CCN(CC(C)(c3ccc(F)cc3)C3OCCCO3)CC2)C1=O (stereo not drawn)	> 100 µM	33.9 µM		34.6 µM	34.6 µM	46.6 µM	31.9 µM	26.6 µM	11 µM	33.7 µM	31.6 µM
Cn1c2ccccc2c2c3c(c4c5ccccc5n(C)c4c21)C(=O)NC3=O	> 100 µM	> 100 µM	> 58.3 µM	> 100 µM	> 100 µM	> 95.7 µM	> 100 µM	> 51.5 µM	> 100 µM		
COc1ccc(C(=O)O[C@H]2[C@@H]3C=CO[C@@H](OC4OC(CO)C(O)C(O)C4O)[C@@H]3[C@@]3(CO)O[C@@H]23)cc1O (stereo partly drawn)			> 100 µM	> 100 µM	> 100 µM	> 100 µM	> 100 µM	> 100 µM	> 100 µM	> 100 µM	
Cc1cnc2sn(-c3ccc([N+](=O)[O-])cc3)c(=O)c2c1	> 100 µM	> 100 µM	> 100 µM	> 100 µM	> 100 µM	51.6 µM	> 100 µM	> 100 µM	> 100 µM		> 100 µM
CCC1(N=[N+]=[N-])C(=O)c2ccccc2N(C)C1=O (stereo not drawn)		> 100 µM	> 100 µM	> 100 µM	> 100 µM	> 100 µM	> 100 µM	> 100 µM	> 100 µM	> 100 µM	
Cc1c2ccncc2cc2c1[nH]c1ccccc12		28.1 µM	23.2 µM	5.91 µM	9.12 µM	17 µM		7.65 µM	9.89 µM	6.36 µM	
